Results: US10758534B2 (Vertex Pharmaceuticals Incorporated, priority 2014, dated 2020)

Molecular target: T1, F508del (Homo sapiens, UniProt P13569, DEL508-508)
T1 construct: expressed in transfected cells
Assay: Protocol 2: FRET membrane potential optical assay (VIPR), identification of correction compounds
Format: cell-based
Details: F508del CFTR modulator activity; compounds of Table 1; read-out: EC30
Method in brief: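 FRET read-out (CC2-DMPE donor, DiSBAC2(3) voltage-sensitive acceptor) of membrane depolarization on VIPR II. Corrector candidates incubated 16 hrs at 37° C. with NIH3T3 cells expressing F508del; temperature correction at 27° C. as positive control; stimulation by 10 μM forskolin, 20 μM genistein, chloride-free gluconate bath.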

T1 sequence (P13569 with tags, fused parts or gaps DEL508-508): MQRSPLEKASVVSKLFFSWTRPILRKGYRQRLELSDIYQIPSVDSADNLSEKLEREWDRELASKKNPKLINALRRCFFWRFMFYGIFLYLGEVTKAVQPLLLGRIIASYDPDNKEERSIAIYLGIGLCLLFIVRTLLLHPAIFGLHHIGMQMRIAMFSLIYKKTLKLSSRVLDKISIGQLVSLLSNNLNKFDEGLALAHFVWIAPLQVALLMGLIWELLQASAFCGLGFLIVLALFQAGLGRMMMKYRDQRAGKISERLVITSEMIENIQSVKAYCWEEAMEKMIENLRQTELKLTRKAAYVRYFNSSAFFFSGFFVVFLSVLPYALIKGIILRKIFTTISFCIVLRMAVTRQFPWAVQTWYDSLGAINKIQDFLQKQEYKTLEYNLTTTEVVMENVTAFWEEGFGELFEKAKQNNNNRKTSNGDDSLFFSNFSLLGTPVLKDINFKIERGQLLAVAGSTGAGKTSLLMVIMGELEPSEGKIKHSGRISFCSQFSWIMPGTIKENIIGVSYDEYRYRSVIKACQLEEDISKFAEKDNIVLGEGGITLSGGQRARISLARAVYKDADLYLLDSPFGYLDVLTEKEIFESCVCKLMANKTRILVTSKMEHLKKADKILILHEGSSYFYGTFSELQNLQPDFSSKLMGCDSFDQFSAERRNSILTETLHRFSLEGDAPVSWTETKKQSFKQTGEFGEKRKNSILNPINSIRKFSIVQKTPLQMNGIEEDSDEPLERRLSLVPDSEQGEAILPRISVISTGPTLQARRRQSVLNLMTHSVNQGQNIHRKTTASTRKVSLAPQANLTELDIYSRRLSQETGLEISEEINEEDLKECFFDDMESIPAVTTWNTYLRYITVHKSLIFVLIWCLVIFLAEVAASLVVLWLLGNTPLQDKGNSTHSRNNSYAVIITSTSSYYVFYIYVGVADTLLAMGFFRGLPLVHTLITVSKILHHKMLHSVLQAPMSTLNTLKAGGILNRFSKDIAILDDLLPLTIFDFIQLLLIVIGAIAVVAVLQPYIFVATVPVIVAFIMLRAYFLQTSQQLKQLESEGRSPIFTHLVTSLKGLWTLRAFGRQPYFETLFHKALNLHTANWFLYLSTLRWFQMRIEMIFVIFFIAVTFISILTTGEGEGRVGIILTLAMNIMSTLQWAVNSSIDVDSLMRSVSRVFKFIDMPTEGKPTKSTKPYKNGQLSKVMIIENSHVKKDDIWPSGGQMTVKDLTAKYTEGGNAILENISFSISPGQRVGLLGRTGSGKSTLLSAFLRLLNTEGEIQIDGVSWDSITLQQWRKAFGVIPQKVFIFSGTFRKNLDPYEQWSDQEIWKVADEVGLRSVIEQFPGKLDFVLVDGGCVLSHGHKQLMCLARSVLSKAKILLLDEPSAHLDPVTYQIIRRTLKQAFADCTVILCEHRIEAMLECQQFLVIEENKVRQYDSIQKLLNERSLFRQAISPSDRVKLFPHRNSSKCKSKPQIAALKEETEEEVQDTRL

With `CC1CN(c2ncccc2C(=O)NS(=O)(=O)c2cccc(Oc3cc(Cl)ccc3F)n2)C(C)(C)C1` (stereo not drawn) [Compound 2598, N—[[6-(5-chloro-2-fluoro-phenoxy)-2-pyridyl]sulfonyl]-2-(2,2,4-trimethylpyrrolidin-1-yl)pyridine-3-carboxamide] the EC30 was under 3 µM.
`Nc1cccc(S(=O)(=O)NC(=O)c2cccnc2NC2CCCCC2C2CCCCC2)n1` (stereo not drawn) [Compound 2599, N-[(6-amino-2-pyridyl)sulfonyl]-2-[(2-cyclohexylcyclohexyl)amino]pyridine-3-carboxamide] showed an EC30 of 3 to 10 µM.
`CC1CN(c2ncccc2C(=O)NS(=O)(=O)c2cccc(OCc3cccc(-n4cccc4)c3)n2)C(C)(C)C1` (stereo not drawn) [Compound 2600, N—[[6-[(3-pyrrol-1-ylphenyl)methoxy]-2-pyridyl]sulfonyl]-2-(2,2,4-trimethylpyrrolidin-1-yl)pyridine-3-carboxamide] showed an EC30 of under 3 µM.
`CC1CN(c2ncccc2C(=O)NS(=O)(=O)c2cccc(N3CCN(C4CCCCC4)CC3)n2)C(C)(C)C1` (stereo not drawn) [Compound 2601, N—[[6-(4-cyclohexylpiperazin-1-yl)-2-pyridyl]sulfonyl]-2-(2,2,4-trimethylpyrrolidin-1-yl)pyridine-3-carboxamide] gave an EC30 of 3 to 10 µM.
Work on `CCCOCCNc1cccc(S(=O)(=O)NC(=O)c2cccnc2N2CC(C)CC2(C)C)n1` (stereo not drawn) [Compound 2602, N—[[6-(2-propoxyethylamino)-2-pyridyl]sulfonyl]-2-(2,2,4-trimethylpyrrolidin-1-yl)pyridine-3-carboxamide] yielded an EC30 of 3 to 10 µM.
With `C[C@@H]1CN(c2nc(-n3cc(OCC(C)(C)C)cn3)ccc2C(=O)NS(=O)(=O)c2cccc(N)n2)C(C)(C)C1` [Compound 2603, N-[(6-amino-2-pyridyl)sulfonyl]-6-[4-(2,2-dimethylpropoxy)pyrazol-1-yl]-2-[(4S)-2,2,4-trimethylpyrrolidin-1-yl]pyridine-3-carboxamide] the EC30 was under 3 µM.
Work on `Cc1ccc(-c2ccc(C(=O)NS(=O)(=O)N3CC[C@H](N)C3)c(N3C[C@@H](C)CC3(C)C)n2)cc1C` [Compound 2605, N-[(3S)-3-aminopyrrolidin-1-yl]sulfonyl-6-(3,4-dimethylphenyl)-2-[(4S)-2,2,4-trimethylpyrrolidin-1-yl]pyridine-3-carboxamide] yielded an EC30 of 3 to 10 µM.
Work on `COc1ccc(F)c(-c2ccc(C(=O)NS(=O)(=O)c3ccc[nH]c3=O)c(N3C[C@@H](C)CC3(C)C)n2)c1` [Compound 2606, 6-(2-fluoro-5-methoxy-phenyl)-N-[(2-oxo-1H-pyridin-3-yl)sulfonyl]-2-[(4S)-2,2,4-trimethylpyrrolidin-1-yl]pyridine-3-carboxamide] yielded an EC30 of under 3 µM.
With `COc1cc(C)c(-c2ccc(C(=O)NS(=O)(=O)c3cccnc3N)c(N3C[C@@H](C)CC3(C)C)n2)c(C)c1` [Compound 2607, N-[(2-amino-3-pyridyl)sulfonyl]-6-(4-methoxy-2,6-dimethyl-phenyl)-2-[(4S)-2,2,4-trimethylpyrrolidin-1-yl]pyridine-3-carboxamide] the EC30 was under 3 µM.
`CC(C)Oc1c(F)cc(-c2ccc(C(=O)NS(=O)(=O)c3cccc(N)n3)c(N3C[C@@H](C)CC3(C)C)n2)cc1F` [Compound 2608, N-[(6-amino-2-pyridyl)sulfonyl]-6-(3,5-difluoro-4-isopropoxy-phenyl)-2-[(4S)-2,2,4-trimethylpyrrolidin-1-yl]pyridine-3-carboxamide] showed an EC30 of under 3 µM.
With `CC1CN(c2ncccc2C(=O)NS(=O)(=O)c2cccc(N3CCCC3C)n2)C(C)(C)C1` (stereo not drawn) [Compound 2609, N—[[6-(2-methylpyrrolidin-1-yl)-2-pyridyl]sulfonyl]-2-(2,2,4-trimethylpyrrolidin-1-yl)pyridine-3-carboxamide] the EC30 was under 3 µM.
Work on `C#Cc1ccc(COc2cccc(S(=O)(=O)NC(=O)c3cccnc3N3CC(C)CC3(C)C)n2)cc1` (stereo not drawn) [Compound 2610, N—[[6-[(4-ethynylphenyl)methoxy]-2-pyridyl]sulfonyl]-2-(2,2,4-trimethylpyrrolidin-1-yl)pyridine-3-carboxamide] yielded an EC30 of under 3 µM.
